Test results taken from ChEMBL document CHEMBL5604063, “ASAP - DENV-2 NS2B-NS3 protease fluorescence dose response” (2024).

Molecular target: Genome polyprotein (dengue virus type 2, UniProt P29990)
Format: functional, Thailand/16681/1984

Sequence of Genome polyprotein (P29990 1346-1475 limits assumed): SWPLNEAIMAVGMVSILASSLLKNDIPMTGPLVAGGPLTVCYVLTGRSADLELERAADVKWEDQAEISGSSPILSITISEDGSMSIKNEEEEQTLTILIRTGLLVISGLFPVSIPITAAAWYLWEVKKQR
Sequence of Genome polyprotein (P29990 1476-2093 limits assumed): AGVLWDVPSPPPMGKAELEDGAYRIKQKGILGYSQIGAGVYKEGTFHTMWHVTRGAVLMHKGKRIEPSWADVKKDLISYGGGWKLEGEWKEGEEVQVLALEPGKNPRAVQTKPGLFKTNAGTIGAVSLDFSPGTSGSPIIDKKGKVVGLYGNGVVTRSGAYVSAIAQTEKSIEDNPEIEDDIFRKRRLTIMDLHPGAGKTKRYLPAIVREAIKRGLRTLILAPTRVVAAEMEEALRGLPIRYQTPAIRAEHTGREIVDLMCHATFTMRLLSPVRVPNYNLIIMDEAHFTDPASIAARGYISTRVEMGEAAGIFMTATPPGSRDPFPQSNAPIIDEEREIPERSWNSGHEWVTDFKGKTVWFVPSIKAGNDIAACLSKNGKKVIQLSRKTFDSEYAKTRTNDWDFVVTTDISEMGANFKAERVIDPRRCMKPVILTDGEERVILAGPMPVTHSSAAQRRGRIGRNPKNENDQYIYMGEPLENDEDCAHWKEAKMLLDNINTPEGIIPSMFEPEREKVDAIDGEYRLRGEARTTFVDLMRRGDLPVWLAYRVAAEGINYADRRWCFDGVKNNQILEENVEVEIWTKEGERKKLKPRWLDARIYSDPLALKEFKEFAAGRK

Row | Compound | IC50 [µM]
1 | NCc1ccc(-c2ncc(OCC3CCNCC3)nc2-c2ccc(C3CCOCC3)cc2)cc1 | > 99.5
2 | NCc1cccc(NC(=O)[C@H](NC(=O)OCc2ccccc2)C(C2CCC2)C2CCC2)c1 | > 99.5
3 | CN1CCN(C2CN(C(=O)c3cc(Br)cc(C=O)c3)C2)CC1 | > 99.5
4 | CCn1cc(-c2ccnc(N(C)C)c2)nc(N2CC[C@@H](CO)C2)c1=O | > 99.5
5 | CCn1cc(-c2ccc(OC)c(C)c2)nc(N2CC[C@@H](CO)C2)c1=O | > 99.5
6 | NCc1cccc(NC(=O)[C@@H](NC(=O)OCc2ccccc2)c2ccc(-c3ccnc(N)c3)cc2)c1 | > 99.5
7 | O=S(=O)(Nc1ccc(Cl)cc1CO)c1ccc(Oc2ccccc2Cl)cc1 | 78.8
8 | CN1CCN(C2CCN(C(=O)c3cc(C=O)n(C)c3)CC2)CC1 | > 99.5
9 | Cn1nccc1-c1ccc([C@@H](NC(=O)OCc2ccccc2)C(=O)Nc2cccc(CN)c2)cc1 | > 99.5
10 | c1ccc2c(CN3CCC(c4nn[nH]n4)CC3)c[nH]c2c1 | > 99.5
11 | COC(=O)c1cc(Cl)ccc1NS(=O)(=O)c1ccc(O)cc1 | > 99.5
12 | CCn1cc(-c2cnn(C)n2)nc(N2CC[C@@H](CO)C2)c1=O | > 99.5
13 | O=C(O)c1cc(Cl)cc(NS(=O)(=O)c2ccc(Oc3ccccc3Cl)cc2)c1 | > 99.5
14 | CCn1cc(-c2cccc(-n3cccn3)c2)nc(N2CC[C@@H](CO)C2)c1=O | > 99.5
15 | NCc1cccc(NC(=O)[C@@H](NC(=O)OCc2ccccc2)c2cccc(Br)c2)c1 | 85.8
16 | N#Cc1cc(F)cc(N2CC[C@H](CO)C2)c1 | > 99.5
17 | CCn1cc(-c2cccc(OC)c2F)nc(N2CC[C@@H](CO)C2)c1=O | > 99.5
18 | CCn1cc(-c2cnn(-c3ccccc3)c2)nc(N2CC[C@@H](CO)C2)c1=O | > 99.5
19 | Cc1cnc(Oc2ccc(S(=O)(=O)Nc3ccc(Cl)cc3C(=O)O)cc2)cn1 | > 99.5
20 | O=C(O)c1cc(Cl)ccc1NS(=O)(=O)c1ccc(Oc2ccccc2Cl)nc1 | 46.9
21 | Cc1cc(C)c(C(=O)N2C[C@H]3CN(C)CC[C@@]3(CO)C2)cc1C=O | > 99.5

Row | Compound | IC50 [µM]
22 | CN(C)C[C@@]1(O)CCN(C(=O)c2cc(C=O)c[nH]2)C1 | > 99.5
23 | COC(=O)c1cc(Cl)ccc1NS(=O)(=O)c1ccc(Oc2ccccc2Cl)nc1 | > 99.5
24 | NCc1cccc(N2CCN(C(=O)OCc3ccccc3)[C@H](c3ccc(OCc4ccccc4)cc3)C2=O)c1 | 74.7
25 | O=C(O)c1cc(Cl)ccc1NS(=O)(=O)c1ccc(N[C@H]2CCOC2)nc1 | > 99.5
26 | CCn1cc(C2=CCCNC2)nc(N2CC[C@@H](CO)C2)c1=O | > 99.5
27 | CCn1cc(-c2ccc3nn(C)cc3c2)nc(N2CC[C@@H](CO)C2)c1=O | > 99.5
28 | CCn1cc(-c2cc(F)ccc2C)nc(N2CC[C@@H](CO)C2)c1=O | > 99.5
29 | O=C(NCc1cc(Cl)ccc1NS(=O)(=O)c1ccc(Oc2ccccc2Cl)cc1)C1CC1 | > 99.5
30 | CN(c1ncnc(-c2ccsc2C=O)n1)C1CCNCC1 | > 99.5
31 | CCn1cc(-c2ccc(C(F)F)nc2)nc(N2CC[C@@H](CO)C2)c1=O | > 99.5
32 | C[C@@H](NC(=O)c1ccc2[nH]cc(C=O)c2c1)C1=CCN(C)CC1 | > 99.5
33 | CCc1ccc(-c2cn(CC)c(=O)c(N3CC[C@@H](CO)C3)n2)s1 | > 99.5
34 | C[C@H]1CN(C(=O)Cc2ccc(C=O)[nH]2)CCN1C1CCCC1 | > 99.5
35 | CCn1cc(-c2cnc3ccnn3c2)nc(N2CC[C@@H](CO)C2)c1=O | > 99.5
36 | CC1(C)CCC([C@@H](NC(=O)OCc2ccccc2)C(=O)Nc2cccc(CN)c2)CC1 | > 99.5
37 | O=C(O)CN(c1ccc(Cl)cc1)S(=O)(=O)c1ccc(Oc2ccccc2Cl)cc1 | 86.6
38 | CCn1nccc1-c1cn(CC)c(=O)c(N2CC[C@@H](CO)C2)n1 | > 99.5
39 | O=Cc1ccc(CC(=O)N2C[C@@H](O)[C@H](N3CCOCC3)C2)cc1 | > 99.5
40 | Cc1nccnc1Oc1ccc(S(=O)(=O)Nc2ccc(Cl)cc2C(=O)O)cc1 | > 99.5
41 | O=C(O)c1cc(Cl)ccc1NS(=O)(=O)c1ccc(OCc2ncccn2)cc1 | > 99.5
42 | NC(=O)c1ccc(N2CC[C@@H](CO)C2)cc1 | > 99.5
